{"source": "paper PMC4804318", "about": "(Pharmacology Research & Perspectives, 2016)", "molecular_target": "T1, human AT1R (Homo sapiens, UniProt P30556)", "T1 sequence (P30556 1-359)": "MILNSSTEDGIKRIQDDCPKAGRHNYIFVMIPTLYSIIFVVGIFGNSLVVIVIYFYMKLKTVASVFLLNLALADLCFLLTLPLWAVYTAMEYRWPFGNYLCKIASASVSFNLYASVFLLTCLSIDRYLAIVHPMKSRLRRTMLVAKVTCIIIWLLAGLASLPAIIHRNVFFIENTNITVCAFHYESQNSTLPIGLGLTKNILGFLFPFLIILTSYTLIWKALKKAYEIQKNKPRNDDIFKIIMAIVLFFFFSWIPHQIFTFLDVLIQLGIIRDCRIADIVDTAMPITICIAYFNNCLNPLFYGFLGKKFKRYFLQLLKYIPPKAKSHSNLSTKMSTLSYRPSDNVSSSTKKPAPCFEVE", "assay_type": "cell-based", "conditions": "CellKey assay, Fig. 1C"}
{"substance": "[Sar^1, Cys^5, Leu^8]‐AngII", "values": [{"measurement": "potency at β‐arrestin stimulation relative to AngII and SII", "value": "less potent than AngII but more potent than SII"}]}
